With `O=C(Nc1cccc2c1C(=O)c1c-2n[nH]c1C1CCN(C(=O)c2cccs2)CC1)NN1CCOCC1` as the compound, how does the melting point read?
Its melting point is 218 to 220 °C.

For `CCOC1CCC(=O)N1S(=O)(=O)c1ccc(N)cc1` (stereo not given), which melting point is on record?
The melting point was 185 to 186 °C.

For `CCOC(=O)c1c(N2CCN(C(=O)c3cccs3)CC2)c2cnccc2[nH]c1=O`, which melting point is on record?
The melting point was 231 °C.

For `CCOC(=O)[C@H]1[C@@H]2C=CC(=O)[C@@H]21` (racemic), which melting point is on record?
Its melting point is 77 to 78 °C.

Which melting point does the source give for `CCOC(=O)c1c(Cl)c2cscc2[nH]c1=O` here?
The melting point was 157 °C.

For `O=S(=O)(c1ccc(F)cc1)c1c[nH]c2ccc(Br)cc12`, which melting point is on record?
The melting point was 163 to 164 °C.

Which melting point does the source give for `CCOC(=O)NNC(C)=S` here?
Its melting point is 54 to 57.5 °C.

Which melting point does the source give for `CN(O)C(=O)C(=Cc1ccc2ccccc2c1)c1ccc(Cl)cc1` here?
The melting point was 140 to 142 °C.

With `c1cncc(-c2ccsc2)c1` as the compound, how does the melting point read?
Its melting point is 75 to 77 °C.

Which melting point does the source give for `CC(=O)Oc1ccc(C(=O)Oc2ccc(C(=O)O)cc2)cc1` here?
The melting point was 98 to 100 °C.

With `COc1cccc2c1CC(NC(=O)C(C)C)CC2` (stereo not given) as the compound, how does the melting point read?
Its melting point is 167 to 168 °C.

For `OC(CNC1CC1)c1cccc(Br)c1` (stereo not given), which melting point is on record?
Its melting point is 69.5 to 70.4 °C.

Which melting point does the source give for `CCOC(=O)C1=C2CC=CC=C2N(C(=O)OCC)CCC1` here?
Its melting point is 60 °C.

For `Cc1ccc(S(=O)(=O)OCC2Cc3cc(Cl)cc(-c4ccsc4)c3O2)cc1` (stereo not given), which melting point is on record?
Its melting point is 115 to 117 °C.

For `CN(C)C(=O)Nc1ccc2c(c1)C(c1ccccc1F)=NCC(=O)N2C`, which melting point is on record?
Its melting point is 97 °C.

With `CC(=O)N1C[C@H]2CCC[C@H]2OC1=O` (relative stereo) as the compound, how does the melting point read?
Its melting point is 80 to 83 °C.

Which melting point does the source give for `CC(C)C1NC(=O)OC1C(F)(F)F` (stereo not given) here?
Its melting point is 71 to 72 °C.

Which melting point does the source give for `Oc1nc2c(Cl)nc3ccccc3c2n1CC1CCOCC1` here?
The melting point was > 275 °C.

With `CC(C)n1nc(-c2cc(Br)c(N)nc2-c2ccccc2)ccc1=O` as the compound, how does the melting point read?
Its melting point is 174 to 176 °C.

With `CCc1n[nH]c(-c2ccccc2)c1NC(=O)c1ccccc1` as the compound, how does the melting point read?
Its melting point is 215 to 216 °C.

Which melting point does the source give for `CS(=O)(=O)c1ccc(-c2cnn(-c3cccc(F)c3)c(=O)c2-c2ccc(F)cc2)cc1` here?
The melting point was 245 to 247 °C.

Which melting point does the source give for `CCCCc1nc2cccc(C(=O)OCCO)c2n1Cc1ccc(-c2ccccc2-c2nnn[nH]2)cc1` here?
The melting point was 145 to 147 °C.

For `CCCCS(=O)(=O)Nc1ccc(OCc2ccc3ccccc3n2)cc1`, which melting point is on record?
The melting point was 113 °C.

For `O=C1NC(=O)C(c2ccc(NC(=O)c3ccccc3)cc2)S1` (stereo not given), which melting point is on record?
The melting point was 240 to 245 °C.

For `CCNC(=O)C(=O)[C@H](Cc1ccccc1)NC(=O)[C@H](CC(C)C)NC(=O)OCCOC`, which melting point is on record?
Its melting point is 138 °C.

Which melting point does the source give for `CC(C)c1nc(CC(=O)N[C@H](C(=O)N[C@@H](Cc2ccccc2)C[C@H](O)[C@H](Cc2ccccc2)NC(=O)OCc2cncs2)C(C)C)cs1` here?
Its melting point is 153 to 155 °C.

With `CSc1nccc(Oc2ccc(NC(=O)c3cc(F)cc(OC4CCCC4)c3)c3ccccc23)n1` as the compound, how does the melting point read?
Its melting point is 115 to 116 °C.

With `CCCCCCCCc1ccc(-c2ccc(COc3ccc(OCC(C)OC(=O)OCCCC)cc3)cc2)cc1` (stereo not given) as the compound, how does the melting point read?
The melting point was 94 °C.

With `CCN(CC)C(=O)c1cc(-c2ccc(OC)cc2)c2ccccc2c1OC` as the compound, how does the melting point read?
The melting point was 129 to 130 °C.

For `CC(SC(=S)c1cc(C(C)(C)C)c(O)c(C(C)(C)C)c1)c1ccccc1` (stereo not given), which melting point is on record?
Its melting point is 70 to 72 °C.

With `Nc1ccc(Cl)cc1NC1CCN(Cc2ccccc2)CC1` as the compound, how does the melting point read?
The melting point was 108 °C.

Which melting point does the source give for `CC(C)(C)OC(=O)CC[C@H](NC(=O)c1ccc(N)cc1F)C(=O)OC(C)(C)C` here?
Its melting point is 91 to 95 °C.

For `CNC(=O)N(O)C(C)C#Cc1ccc(Br)cc1` (stereo not given), which melting point is on record?
Its melting point is 145 to 146 °C.

Which melting point does the source give for `CCCOc1cc(CCCOc2nn(Cc3ccccc3)cc2CC(=O)O)n(Cc2ccc(F)cc2F)n1` here?
The melting point was 94 to 95 °C.

Which melting point does the source give for `COc1ccc(Nc2ccc(Nc3ncnc4cc(-c5ccc(OC)nc5)sc34)cc2)cc1` here?
The melting point was 149 to 159 °C.

Which melting point does the source give for `CCCCCCCCCCCC#Cc1ccccc1C=C(P(=O)(O)O)P(=O)(O)O` here?
The melting point was 141 to 142 °C.

For `CC(=O)c1ccc(NS(=O)(=O)N(C)C)c(Oc2ccc(F)cc2F)c1`, which melting point is on record?
The melting point was 80 to 82 °C.

Which melting point does the source give for `COc1cc(OC)c2c(c1)OCC(CNCCCOc1cccc(N)c1)O2` (stereo not given) here?
The melting point was 123 to 128 °C.

For `CC(=O)Nc1ccc(C=O)c(C)c1C#N`, which melting point is on record?
Its melting point is 170 to 173 °C.

Which melting point does the source give for `CCOC(=O)c1ccc2[nH]c(C)c(SC)c2c1` here?
The melting point was 127 to 130 °C.
